Source: patent US4062816A, “D-Ala^5 -somatostatin and intermediates thereto” (Eli Lilly and Company, priority 1976, dated 1977)

Legend:
insulin = experiment: inhibition of insulin secretion in dogs during L-alanine infusion; assay type: in vivo, mongrel dogs; details: intravenous infusion 0.20-0.30 μg/kg/minute (D-Ala5-somatostatin 0.230 μg/kg/min.); fasted dogs
Method: (§1) The product from Example 4 also was tested for its activity in inhibiting glucagon and insulin secretion. Normal mongrel dogs of either sex were fasted overnight. Control blood samples were obtained, and then an intravenous infusion of saline, somatostatin, or D-Ala^5 -somatostatinwas started. After 30 minutes, L-alanine additionally was administered intravenously for a period of 15 minutes. The infusion of saline, somatostatin, of D-Ala^5 -somatostatin was continued for 15 minutes after completion of the alanine infusion. The total dose of somatostatin or D-Ala^5 -somatostatin which was infused is 200-500 μg/dog (0.20-0.30 μg/kg/ minute), and the total dose of L-alanine infused was 1 mmol.kg./15 minutes.

glucagon = experiment: inhibition of glucagon secretion in dogs during L-alanine infusion; assay type: in vivo, mongrel dogs; details: intravenous infusion 0.20-0.30 μg/kg/minute (D-Ala5-somatostatin 0.230 μg/kg/min.); fasted dogs
Method: as §1

growth hormone = experiment: inhibition of the release of growth hormone in pentobarbital-stimulated rats; assay type: in vivo, Spraque-Dawley rats; details: 50 μg./rat, subcutaneously; sodium pentobarbital-stimulated; relative to saline control group
Method: The product from Example 4 was tested for its activity in inhibiting the release of growth hormone. The procedure which was employed is carried out using mature male Spraque-Dawley rats (Laboratory Supply Company, Indianapolis, Ind.). The test is a modification of the method of P. Brazeau, W. Vale, and R. Guillemen, Endocrinology, 94 184 (1974). In this assay, three groups of eight rats each were employed. First, sodium pentobarbital was administered to all […] rats to stimulate growth hormone secretion. One of the groups of eight rats is the control group and received only saline. A second of the groups received somatostatin at 50 μg./rat, subcutaneously. The third group received D-Ala^5 -somatostatin at 50 μg./rat, subcutaneously. The degree of inhibition of serum growth hormone concentration then was determined with respect to the control group, and the relative activities of D-Ala^5 -somatostatin and somatostatin itself were compared. At a dose level of 50 μg./rat, D-Ala^5 -somatostatin inhibited the increase in serum growth hormone concentration by 40-50 percent, while somatostatin itself produced a 90 percent inhibition.

## C[C@H](N)C(=O)NCC(=O)N[C@H]1CSSC[C@@H](C(=O)O)NC(=O)[C@H](CO)NC(=O)[C@H]([C@@H](C)O)NC(=O)[C@H](Cc2ccccc2)NC(=O)[C@H]([C@@H](C)O)NC(=O)[C@H](CCCCN)NC(=O)[C@H](Cc2c[nH]c3ccccc23)NC(=O)[C@H](Cc2ccccc2)NC(=O)[C@H](Cc2ccccc2)NC(=O)[C@@H](C)NC(=O)[C@H](CCCCN)NC1=O [D-Ala^5 -somatostatin]
insulin
  effect on basal serum insulin concentration (before alanine infusion): caused a brief increase in insulin concentration
  effect on the increase in insulin concentration/secretion produced by L-alanine: did not inhibit the increase in insulin secretion
glucagon
  effect on the increase in serum glucagon concentration produced by L-alanine: did not affect the increase in serum glucagon concentration
Growth hormone
  inhibition of the increase in serum growth hormone concentration: 40-50%
